Test results taken from paper PMC10397409, “The action of physiological and synthetic steroids on the calcium channel CatSper in human sperm” (Frontiers in Cell and Developmental Biology, 2023).
Like-named read-outs stand apart in the source and are kept apart here.

Columns and labels:
CatSper [1] = target: T1, CatSper (Homo sapiens, UniProt Q7RTX7+Q86XQ3+Q8NEC5+Q96P56); assay: Steroid-induced increase in [Ca2+]i in human sperm (Fluo-4 HTS assay, screen 1 activators); assay type: cell-based; settings: for Emax: read-out: Max amplitude (%) (± SD)
T1 construct: Motile spermatozoa were selected by a ‘swim-up’ procedure; endogenous in cells; host or cells: motile human spermatozoa (swim-up) from healthy donors
Protocol: (§1) Briefly, motile spermatozoa were selected by swim-up and labeled with the fluorescent calcium indicator Fluo-4 a.m. to image changes in [Ca^2+]i. After centrifugation to remove excess dye, Fluo-4 AM loaded cells were distributed in a 384-wells plate to obtain ∼125,000 cells/well. After measuring basal fluorescence, a first injection of compounds was performed in order to evaluate their effect on [Ca^2+]i alone. This first screen is therefore considered as a screen to search for ‘activators’. Fluorescence was recorded for 12 min during which sperm cells were continuously exposed to compounds. P4 or PGE1 were then added in the same wells to evaluate whether the tested compounds can reduce the ligand-induced activation of CatSper. This second screen was therefore considered to be a search for CatSper ‘inhibitors’.
Human semen samples were collected from healthy donors by masturbation after a recommended sexual abstinence period of minimum 2 days. Semen samples were allowed to liquefy at 37°C for 15–30 min. […] Motile sperm were allowed to swim at 37°C for 1 hour. The supernatant was collected in 15 mL Falcon tubes and washed twice by centrifugation at 700 x g for 20 min. Sperm were supplemented with 3 mg/mL HSA.
20 μL of cells (corresponding to ∼125,000 cells) loaded with Fluo-4 a.m. were dispensed in a 384-wells plate (Corning, NY, United States) to allow fluorescence measurement. The dye was excited at 480 nm, and emission was recorded at 530 nm. The change in [Ca^2+]i was assessed simultaneously in all wells using a Functional Drug Screening System (FDSS/μCELL) (Hamamatsu Phototonics K.K., Yokohama, Japan) at 37°C. Basal fluorescence was first measured for 30 s. […] P4 and PGE1 were tested at a near-saturating concentration in the HTS in order to evaluate a potential additive or synergistic effect induced by the compounds. […] For alkalization-induced Ca^2+ measurement, NH4Cl was used as a positive control at a final concentration of 10 mM. […] The Prestwick library was tested in technical duplicate. Ca^2+ response curves were normalized using the following formula F−F0/F0×100 , where F 0 is the average of the basal fluorescence prior to the addition of the compound of interest and F corresponds to the fluorescence value at each time point. The ∆F/F0 of the vehicle control (DMSO) was subtracted from all the other values to adjust for dilution and pipetting artifacts. The values of all compounds were normalized to their respective controls.
Data are shown as mean ± standard deviation (SD) with “n” referring to the number of independent experiments performed using sperm samples from ≥3 different donors. Statistical analysis and fitting of dose-response relations were performed using GraphPad Prism 8.1.1 (Prism, La Jolla, United States). To generate sigmoidal curves, the concentrations were converted to their respective log values, and the data were normalized using the following formula: 100⋅x/Fmax , where Fmax is the maximum value of the positive control. A four-parameter Hill equation with a variable Hill coefficient was fitted to generate the EC02, EC50, and IC50. Statistical significance between control and treated conditions was evaluated using a one-way analysis of variance (ANOVA), followed by Dunnett´s test. A p-value <0.05 was considered significant.

CatSper [2] = target: T1, CatSper; assay: Inhibition of P4-induced Ca2+ influx in human sperm (screen 2 inhibitors); assay type: cell-based
Protocol: as §1
Human semen samples were collected from healthy donors by masturbation after a recommended sexual abstinence period of minimum 2 days. Semen samples were allowed to liquefy at 37°C for 15–30 min. Motile spermatozoa were selected by a ‘swim-up’ procedure as previously described ([Strünker et al., 2011]). Briefly, 1 mL of semen was deposited in a 45°-inclined 50 mL Falcon tube with 4 mL of Human Tubular Fluid (HTF) medium containing: 93.8 mM NaCl, 4.7 mM KCl, 0.2 mM MgSO4, 0.37 mM KH2PO4, 2.04 mM CaCl2, 20.98 mM HEPES, 2.78 mM glucose, 21.4 mM Na-lactate, 4 mM NaHCO3, 0.33 mM Na-pyruvate, and the pH was adjusted to 7.35. Motile sperm were allowed to swim at 37°C for 1 hour. The supernatant was collected in 15 mL Falcon tubes and washed twice by centrifugation at 700 x g for 20 min. Sperm were supplemented with 3 mg/mL HSA. Written informed consent was obtained from all donors prior to donation and approved by the Cantonal Ethics Committee of the State of Geneva (CCER #14-147).
Cells were loaded with the fluorescent Ca^2+ indicator Fluo-4 AM at a final concentration of 2.5 µM for 30 min at 37°C. Excess dye was washed via centrifugation at 700 x g for 20 min and sperm were resuspended in HTF medium to obtain a final concentration of 6.25 x 10^6 cells/mL. 20 μL of cells (corresponding to ∼125,000 cells) loaded with Fluo-4 a.m. were dispensed in a 384-wells plate (Corning, NY, United States) to allow fluorescence measurement. The dye was excited at 480 nm, and emission was recorded at 530 nm. The change in [Ca^2+]i was assessed simultaneously in all wells using a Functional Drug Screening System (FDSS/μCELL) (Hamamatsu Phototonics K.K., Yokohama, Japan) at 37°C. Basal fluorescence was first measured for 30 s. […] P4 and PGE1 were tested at a near-saturating concentration in the HTS in order to evaluate a potential additive or synergistic effect induced by the compounds. Non-specific CatSper inhibitor MDL 12330A was used as a negative control at final concentration of 20 µM while DMSO was used as a vehicle control. For alkalization-induced Ca^2+ measurement, NH4Cl was used as a positive control at a final concentration of 10 mM. Fluorescence was recorded for a total of 16.5 min: 30 s before injection, 12 min after the first injection of the tested compounds, and 4 min after the second injection of either P4 or PGE1. The Prestwick library was tested in technical duplicate. Ca^2+ response curves were normalized using the following formula F−F0/F0×100 , where F 0 is the average of the basal fluorescence prior to the addition of the compound of interest and F corresponds to the fluorescence value at each time point. The ∆F/F0 of the vehicle control (DMSO) was subtracted from all the other values to adjust for dilution and pipetting artifacts. The values of all compounds were normalized to their respective controls.

[3] = EC50 (±SD), increase in [Ca2+]i, dose-response 90 µM to 0.3 nM
[4] = Mean EC50 µM (±SD), pooled from 3 independent experiments
[5] = IC50 (±SD), inhibition of P4-induced Ca2+ response, dose-response 90 µM to 0.3 nM
[6] = maximal amplitude of steroid-induced [Ca2+]i increase, relative to P4, 3 independent experiments
[7] = pooled from 3 independent experiments, read-out: Mean EC50 µM (±SD)
[8] = P4-induced response, pooled from 3 independent experiments, read-out: Mean IC50 (P4) µM (±SD)
[9] = Mean IC50 (P4) µM (±SD), P4-induced response, pooled from 3 independent experiments

Molecule | Emax (CatSper [1]) [%] | Max P4 inhibition (%) (± SD) (CatSper [2]; 3 independent experiments) | Max P4 inhibition (%) (± SD) (CatSper [2]) | IC50 (CatSper [2]; [8]) [µM] | also measured
C[C@]12CC[C@H]3[C@@H](CCC4=CC(=O)CC[C@@]43C)[C@@H]1CC[C@@H]2C(=O)CO [Deoxycorticosterone] | 94 | 86 (±3) % | – | – | EC50 (CatSper [1]; [3]): 0.302 µM; EC50 (CatSper [1]; EC50, increase in [Ca2+]i): 0.3 µM; EC50 (CatSper [1]; [4]): 0.295 µM; reduction of the P4 response (CatSper [2]): more than 86%; IC50 (CatSper [2]; [5]): 0.523 µM; IC50 (CatSper [2]; IC50, reduction of P4 response): 0.5 µM
C#C[C@]1(O)CC[C@H]2[C@@H]3CCc4cc(OC)ccc4[C@H]3CC[C@@]21C [ethynylestradiol 3-methyl ether] | – | 4 (±3) % | – | – | Emax (CatSper [1]; [6]): 9%
C#C[C@]1(O)CC[C@H]2[C@@H]3CCC4=CC(=O)CC[C@@H]4[C@H]3CC[C@@]21C [norethindrone] | 28 | – | 22 (±5) % | 4.35 | EC50 (CatSper [1]; [7]): 6.05 µM
C[C@H](CCC(=O)O)[C@H]1CC[C@H]2[C@@H]3CC[C@@H]4C[C@H](O)CC[C@]4(C)[C@H]3CC[C@]12C [lithocholic acid] | 59 | – | 32 (±10) % | – | –
C[C@]12CC[C@H]3[C@@H](CCC4=CC(=O)CC[C@@H]43)[C@@H]1CC[C@@H]2O [Nandrolone] | 98 | 85 (±1) % | – | – | EC02 compared with reported maximum concentration in blood serum (CatSper [1]): EC02 below the reported maximum concentration found in blood serum; EC50 (CatSper [1]; [3]): 0.306 µM; increase in [Ca2+]i (CatSper [1]; at low concentrations in the nanomolar range): 30%; IC50 (CatSper [2]; [5]): 0.711 µM; IC50 (CatSper [2]; [9]): 0.729 µM
CC#C[C@]1(O)CC[C@H]2[C@@H]3CCC4=CC(=O)CCC4=C3[C@@H](c3ccc(N(C)C)cc3)C[C@@]21C [mifepristone] | 9 | – | 25 (±25) % | 11 | EC50 (CatSper [1]; [7]): 13.5 µM
C=C1C[C@@H]2[C@H](CC[C@]3(C)C(=O)CC[C@@H]23)[C@@]2(C)C=CC(=O)C=C12 [exemestane] | 63 | – | 56 (±2) % | 0.309 | EC50 (CatSper [1]; [7]): 0.557 µM
CC(=O)O[C@]1(C(C)=O)CC[C@H]2[C@@H]3C=C(C)C4=CC(=O)CC[C@]4(C)[C@H]3CC[C@@]21C [megestrol acetate] | – | -4 (±11) % | – | – | Emax (CatSper [1]; [6]): 3%
norgestrel-(-)-d | – | 3 (±5) % | – | 75.6 | Max amplitude (%) (± SD) (CatSper [1]; [6]): 5 (±3) %
CC12CCC(O)CC1=CCC1C2CCC2(C)C(C(=O)O)CCC12 (centres unmarked) [S67] | 80 | 86 (±3) % | – | – | EC50 (CatSper [1]; [4]): 0.108 µM; IC50 (CatSper [2]; [9]): 0.253 µM
CC12CCC(O)CC1CCC1C2CCC2(C)C1CCC2(C)O (centres unmarked) [S64] | 65 | 55 (±1) % | – | – | EC50 (CatSper [1]; [4]): 0.265 µM; IC50 (CatSper [2]; [9]): 0.682 µM
C#C[C@]1(O)CC[C@H]2[C@@H]3CCC4=CC(=O)CC[C@]4(C)[C@H]3CC[C@@]21C [ethisterone] | 8 | 10 (±9) % | – | 5.13 | –
